Here are results for three compounds from ChEMBL document CHEMBL6109069 (J Med Chem, 2025).

The source made the active and inactive calls. The rule behind the calls is not given here. Starred links: 1 amine or outer side, 2 acyl side, 3 side chain; linkers in the order of their positions; H or OH if unused. Non-standard residues stand in square brackets, D forms with d. Residues, ends and D or L forms follow the SMILES beside them. *: point of attachment. X1 = CCC(=O)C[C@@H](O)C[C@@H](C)C[C@H](N[*:1])C(=O)[*:2]; Hexenoyl(2E,4S-Me) = CC[C@H](C)/C=C/C(=O)*; Leu(3R-OH) = CC(C)[C@@H](O)[C@H](N)C(=O)O; NH((S)CH(Me)CH2NMe2) = C[C@@H](CN(C)C)N*; Pro(4S-Me) = C[C@@H]1CN[C@H](C(=O)O)C1; NH(1-CH2NMe2-cBu) = CN(C)CC1(N*)CCC1; Benzoyl(4-F) = O=C(c1ccc(F)cc1)*; hCha = N[C@@H](CCC1CCCCC1)C(=O)O; Aib = CC(C)(N)C(=O)O; βAla = NCCC(=O)O

The test system of data set [1] is Fibroblast. Kind of data set: Induction of mitochondrial uncoupling activity in human Fibroblast cells assessed as increase in oxygen consumption rate by measuring fluorescence intensity at 25 nM measured up to 80 mins by O2k-type oxygraph analysis. The data set is classed as functional, cell-based.
Data set [2] is described as follows: Inhibition of Bovine heart ATP synthase assessed as inhibition constant by Michaelis-Menten plot analysis. Also noted: species or system Bos taurus. To be noted: read-out: Ki.
Data set [3] in a line: Inhibition of Escherichia coli ATP synthase assessed as inhibition constant.
The subject of data set [4] is Mitochondrial membrane. Kind of data set: Induction of mitochondrial membrane depolarization in bovine heart assessed as change in fluorescence intensity at 25 nM by safranin O staining based eclipse fluorescence spectrophotometric analysis. The data set is classed as cell membranes. To be noted: Bos taurus.
Data set [5] has as its system Mitochondrial membrane. Kind of data set: Induction of mitochondrial membrane potential in bovine heart assessed as change in fluorescence intensity at 200 nM by safranin O staining based eclipse fluorescence spectrophotometric analysis. It is filed as cell membranes. To be noted: Bos taurus.
Data set [6] concerns Mitochondrial membrane. Kind of data set: Induction of mitochondrial membrane depolarization in bovine heart assessed as change in fluorescence intensity at 100 to 200 nM by safranin O staining based eclipse fluorescence spectrophotometric analysis. The data set is classed as cell membranes. The conditions noted are these: Bos taurus, dose 100-200 nM.
Data set [7] deals with Trypanosoma brucei. The experiment in a line: Induction of mitochondrial uncoupling activity in Trypanosoma brucei assessed as increase in oxygen consumption rate by measuring fluorescence intensity at 25 nM measured up to 80 mins by O2k-type oxygraph analysis. It is filed as functional, organism-based.
Data set [8] can be described thus: Reduction in respiration rate in human Fibroblast cells assessed as decrease in coupling efficiency at 50 nM incubated up to 80 mins. The data set is classed as functional. More on the design: scale not given: the % may be the effect or the level left. The conditions noted are these: 1.333 h.
For the next data set, the system named is Trypanosoma cruzi. Kind of data set: Antitrypanosomal activity against Trypanosoma cruzi Tulahuen C4 incubated for 4 days. The data set is classed as functional, organism-based. To be noted: Tulahuen C4, 96 h.
In a further data set the test system is Leishmania donovani. The experiment in a line: Antitrypanosomal activity against Leishmania donovani MHOM/ET/67/L82 incubated for 72 hrs by resazurin staining based analysis. It is filed as functional, organism-based. The conditions noted are these: MHOM/ET/67/L82, 72 h. (Resazurin is reduced to fluorescent resorufin, in cell work by metabolically active cells.)

The next data set deals with Plasmodium falciparum. Kind of data set: Antiplasmodial activity against Plasmodium falciparum NF54 incubated for 48 hrs. The data set is classed as functional, organism-based. The conditions noted are these: NF54, 48 h.
In data set [9] the test system is Trypanosoma brucei rhodesiense. Kind of data set: Antitrypanosomal activity against Trypanosoma brucei rhodesiense STIB 900. The data set is classed as functional, organism-based.
Data set [10] has as its system Lipid bilayer. Kind of data set: Disruption of membrane integrity in bacterial cell membrane mimic POPC/POPG LUVs assessed as calcein leakage at 1.3 uM measured for 1 mins by fluorescence spectroscopy analysis.
Data set [11] relates to Lipid bilayer. The experiment in a line: Disruption of membrane integrity in bacterial cell membrane mimic POPC/POPG LUVs assessed as HTPS leakage at 5 uM measured after 1 mins.
Data set [12] in a line: Cytotoxicity against rat L6 cells assessed as cell viability incubated for 72 hrs by CCK-8 assay. (Tetrazolium assays rely on reduction of a dye to a coloured formazan, in cell work by metabolically active cells.)
Data set [13] has as its system Trypanosoma brucei rhodesiense. Kind of data set: Antitrypanosomal activity against Trypanosoma brucei rhodesiense STIB 900 incubated for 72 hrs by resazurin staining based analysis. It is filed as functional, organism-based. The conditions noted are these: STIB 900, 72 h.
Another data set is filed under the species Bos taurus. The experiment in a line: Potency index, ratio of Leucinostatin A Ki to test compound Ki for inhibition of Bovine heart ATP synthase.
The test system of data set [14] is Fibroblast. The experiment in a line: Reduction in respiration rate in human Fibroblast cells assessed as decrease in coupling efficiency at > 200 nM incubated up to 60 mins. It is filed as functional, cell-based.
The nature of data set [15]: Toxicity in ip dosed mouse assessed as lethal dose. It is filed as organism-based. The conditions noted are these: in vivo.
A short description of data set [16]: Toxicity in po dosed mouse assessed as lethal dose. It is filed as organism-based. To be noted: in vivo.
A short description of data set [17]: Cytotoxicity against rat L6 cells. The data set is classed as toxicity, cell-based.
A short description of data set [18]: Inhibition of yeast ATP synthase assessed as inhibition constant by Michaelis-Menten plot analysis. Also noted: species or system Saccharomyces cerevisiae.
For data set [19], the system named is Mitochondrial membrane. The experiment in a line: Induction of mitochondrial membrane hyperpolarization in bovine heart assessed as change in fluorescence intensity at 25 nM by safranin O staining based eclipse fluorescence spectrophotometric analysis. It is filed as cell membranes. The conditions noted are these: Bos taurus.
For data set [20], the system named is Fibroblast. The experiment in a line: Inhibition of ATP synthase in human Fibroblast cells assessed as decrease in oxygen consumption at 50 nM by OROBOROS instrument based analysis. The data set is classed as cell-based.
For data set [21], the system named is Fibroblast. The experiment in a line: Induction of mitochondrial uncoupling activity in human Fibroblast cells assessed as increase in oxygen consumption rate by measuring fluorescence intensity by O2k-type oxygraph analysis. The data set is classed as functional, cell-based.
Data set [22] has as its system Trypanosoma brucei. Kind of data set: Induction of mitochondrial uncoupling activity in Trypanosoma brucei assessed as increase in oxygen consumption rate by measuring fluorescence intensity by O2k-type oxygraph analysis. The data set is classed as functional, organism-based.
Data set [23] in a line: Cytotoxicity against rat L6 cells assessed as cell viability. It is filed as toxicity, cell-based.
Data set [24] has as its system Lipid bilayer. Kind of data set: Disruption of membrane integrity in bacterial cell membrane mimic POPC/POPG LUVs assessed as HTPS leakage at 1 uM measured for 1 mins by fluorescence spectroscopy analysis.
For data set [25], the system named is Lipid bilayer. The experiment in a line: Disruption of membrane integrity in bacterial cell membrane mimic POPC/POPG LUVs assessed as HTPS leakage at 5 uM measured for 1 mins by fluorescence spectroscopy analysis.

`CC(C)C[C@H](NC(=O)[C@H](CCC1CCCCC1)NC(=O)[C@@H]1CCCN1C(=O)c1ccc(F)cc1)C(=O)NC(C)(C)C(=O)N[C@@H](CC(C)C)C(=O)N[C@@H](CC(C)C)C(=O)NC(C)(C)C(=O)NC(C)(C)C(=O)NCCC(=O)NC1(CN(C)C)CCC1` ({Benzoyl(4-F)}-P[hCha]L[Aib]LL[Aib][Aib][βAla]-{NH(1-CH2NMe2-cBu)}): the result in the data set with Fibroblast [1] and with Trypanosoma brucei [7] was inactive. In addition, the results for the Ki in [2] and in [3] were 265 nM and around 260 nM, respectively. Moreover, the outcome with Mitochondrial membrane [4], with Mitochondrial membrane [5], with Mitochondrial membrane [6], with Lipid bilayer [10] and with Lipid bilayer [11] was Active. The Activity in data set [8] is around 3%. For the same compound, the IC50 (as a rule, the concentration that inhibits the measured activity by half) is 114 nM in the data set with Trypanosoma cruzi, 4.9 nM with Leishmania donovani, 5.4 nM with Plasmodium falciparum and 0.39 nM in data set [9].

As for `CC[C@H](C)/C=C/C(=O)N1C[C@@H](C)C[C@H]1C(=O)N[C@@H](CCC1CCCCC1)C(=O)N[C@H](C(=O)NC(C)(C)C(=O)N[C@@H](CC(C)C)C(=O)N[C@@H](CC(C)C)C(=O)NC(C)(C)C(=O)NC(C)(C)C(=O)NCCC(=O)N[C@@H](C)CN(C)C)[C@H](O)C(C)C` ({Hexenoyl(2E,4S-Me)}-[Pro(4S-Me)][hCha][Leu(3R-OH)][Aib]LL[Aib][Aib][βAla]-{NH((S)CH(Me)CH2NMe2)}), in data set [2], the Ki – broadly, the equilibrium dissociation constant of an inhibitor or competing ligand from its target – came to 22 nM. In addition, in [12], the IC50 at 72 h amounted to 232 nM. The IC50 in data set [13] worked out at 0.34 nM; in the data set with Trypanosoma cruzi it was 275 nM; with Leishmania donovani, 1.2 nM; in the data set on Plasmodium falciparum it was 0.47 nM. Also, in the data set listed under Bos taurus, the Ratio Ki came out at 4. Moreover, the result with Fibroblast [14] was Active.

As to `CCC(=O)C[C@@H](O)C[C@@H](C)C[C@H](NC(=O)[C@@H]1C[C@H](C)CN1C(=O)/C=C/[C@@H](C)CC)C(=O)N[C@H](C(=O)NC(C)(C)C(=O)N[C@@H](CC(C)C)C(=O)N[C@@H](CC(C)C)C(=O)NC(C)(C)C(=O)NC(C)(C)C(=O)NCCC(=O)N[C@@H](C)CN(C)C)[C@H](O)C(C)C` ({Hexenoyl(2E,4S-Me)}-[Pro(4S-Me)][X1][Leu(3R-OH)][Aib]LL[Aib][Aib][βAla]-{NH((S)CH(Me)CH2NMe2)}), the LD50 – broadly, the dose expected to kill half of the subjects tested – was found to be 1.8 mg/kg in data set [15] and 5.4 mg/kg in data set [16]. Besides, the IC50 in data set [17] was 259 nM; in the data set on Trypanosoma cruzi, 23 nM; with Leishmania donovani, 1.1 nM; in the data set with Plasmodium falciparum, 0.61 nM; in data set [9], 0.25 nM; in data set [23], 259 nM. Further, the results for the Ki in data set [18], in data set [2] and in data set [3] were around 30 nM, 80 nM and above 1000 nM, respectively. Moreover, the outcome with Mitochondrial membrane [19], with Fibroblast [21], in the data set with Trypanosoma brucei [22] and in the data set on Lipid bilayer [10] was Active. In addition, the inhibition result in the data set with Fibroblast [20] is “Active”. Further, the Activity in data set [8] is around 60%. For the same compound, the outcome in the data set on Lipid bilayer [24] and with Lipid bilayer [25] was inactive.
